According to ChEMBL document CHEMBL4024706 (Eur J Med Chem, 2017):

Columns and labels:
[1] = tested on: Hepatocyte growth factor receptor (Homo sapiens), P08581 [M1250T]; experiment: Inhibition of human partial length MET M1250T mutant (D1010 to S1367 residues) expressed in bacterial expression system assessed as residual activity at 1 uM by Kinomescan method relative to control
[2] = target: Rhodopsin kinase GRK1 (Homo sapiens) (UniProt Q15835); experiment: Inhibition of wild-type human full length GRK1 (M1 to S563 residues) expressed in mammalian expression system assessed as residual activity at 1 uM by Kinomescan method relative to control
[3] = tested on: Epidermal growth factor receptor (Homo sapiens), P00533 [L858R,T790M]; experiment: Inhibition of human partial length EGFR L858R/T790M double mutant (R669 to V1011 residues) expressed in mammalian expression system assessed as residual activity at 1 uM by Kinomescan method relative to control
[4] = tested on: Mast/stem cell growth factor receptor Kit (Homo sapiens), P10721 [UNDEFINED MUTATION]; experiment: Inhibition of human partial length KIT V559D/V654 double mutant (Y545 to D952 residues) expressed in bacterial expression system assessed as residual activity at 1 uM by Kinomescan method relative to control
[5] = target: Death-associated protein kinase 3 (Homo sapiens) (UniProt O43293); experiment: Inhibition of wild-type human partial length DAPK3 (M1 to A277 residues) expressed in bacterial expression system assessed as residual activity at 1 uM by Kinomescan method relative to control
Death-associated protein kinase 3 (Homo sapiens), sequence (O43293 whole entry, looked up, the tested form may be a part): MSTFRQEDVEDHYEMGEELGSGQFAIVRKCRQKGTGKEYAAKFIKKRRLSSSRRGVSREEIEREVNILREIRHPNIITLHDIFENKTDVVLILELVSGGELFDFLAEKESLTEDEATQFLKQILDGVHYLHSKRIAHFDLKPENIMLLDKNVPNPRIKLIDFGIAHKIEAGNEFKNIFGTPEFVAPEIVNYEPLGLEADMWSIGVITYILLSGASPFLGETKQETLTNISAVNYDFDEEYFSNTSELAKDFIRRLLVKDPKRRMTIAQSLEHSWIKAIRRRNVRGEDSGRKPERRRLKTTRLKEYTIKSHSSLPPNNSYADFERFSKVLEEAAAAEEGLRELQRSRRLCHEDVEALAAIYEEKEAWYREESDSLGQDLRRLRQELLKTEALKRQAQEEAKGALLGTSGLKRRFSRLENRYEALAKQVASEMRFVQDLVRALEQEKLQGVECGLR

SKM-1 = experiment: Growth inhibition of human SKM1 cells; format: functional; settings: Homo sapiens, SKM-1
[6] = target: Ribosomal protein S6 kinase alpha-2 (Homo sapiens) (UniProt Q15349); experiment: Inhibition of wild-type human partial length N-terminal RSK3 kinase domain 1 (M1 to Q385 residues) expressed in bacterial expression system assessed as residual activity at 1 uM by Kinomescan method relative to control
[7] = target: Receptor-interacting serine/threonine-protein kinase 4 (Homo sapiens) (UniProt P57078); experiment: Inhibition of wild-type human partial length RIPK4 (M1 to V303 residues) expressed in mammalian expression system assessed as residual activity at 1 uM by Kinomescan method relative to control
[8] = target: Serine/threonine-protein kinase VRK2 (Homo sapiens) (UniProt Q86Y07); experiment: Inhibition of wild-type human partial length VRK2 (M1 to T336 residues) expressed in mammalian expression system assessed as residual activity at 1 uM by Kinomescan method relative to control
[9] = target: Inhibitor of nuclear factor kappa-B kinase subunit beta (Homo sapiens) (UniProt O14920); experiment: Inhibition of wild-type human full length IKK-beta (M1 to S756 residues) expressed in mammalian expression system assessed as residual activity at 1 uM by Kinomescan method relative to control
Inhibitor of nuclear factor kappa-B kinase subunit beta (Homo sapiens), sequence (O14920 whole entry, the tested form may be a part): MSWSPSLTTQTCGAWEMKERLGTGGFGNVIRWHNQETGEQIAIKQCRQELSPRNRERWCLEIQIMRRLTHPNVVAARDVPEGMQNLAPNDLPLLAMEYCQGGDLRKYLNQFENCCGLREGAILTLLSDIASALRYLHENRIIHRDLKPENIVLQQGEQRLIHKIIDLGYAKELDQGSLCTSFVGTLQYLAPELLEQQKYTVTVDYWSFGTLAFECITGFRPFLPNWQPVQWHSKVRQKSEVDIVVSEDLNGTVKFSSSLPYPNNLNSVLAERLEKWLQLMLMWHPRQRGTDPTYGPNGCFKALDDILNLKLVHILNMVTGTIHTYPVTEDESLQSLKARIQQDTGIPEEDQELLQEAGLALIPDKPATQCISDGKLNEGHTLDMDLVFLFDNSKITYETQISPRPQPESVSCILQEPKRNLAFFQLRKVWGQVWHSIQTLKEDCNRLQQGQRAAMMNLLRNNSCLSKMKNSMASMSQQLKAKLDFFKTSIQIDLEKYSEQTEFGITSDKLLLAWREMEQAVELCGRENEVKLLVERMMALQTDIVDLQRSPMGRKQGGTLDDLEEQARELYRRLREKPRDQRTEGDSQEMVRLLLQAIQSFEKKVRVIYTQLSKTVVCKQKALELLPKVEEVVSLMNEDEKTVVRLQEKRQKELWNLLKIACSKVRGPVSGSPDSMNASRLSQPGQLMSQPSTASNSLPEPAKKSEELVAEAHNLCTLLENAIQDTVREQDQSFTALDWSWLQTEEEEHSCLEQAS

[10] = target: Homeodomain-interacting protein kinase 4 (Homo sapiens) (UniProt Q8NE63); experiment: Inhibition of wild-type human partial length HIPK4 (M1 to V384 residues) expressed in bacterial expression system assessed as residual activity at 1 uM by Kinomescan method relative to control
Homeodomain-interacting protein kinase 4 (Homo sapiens), sequence (Q8NE63 whole entry, the tested form may be a part): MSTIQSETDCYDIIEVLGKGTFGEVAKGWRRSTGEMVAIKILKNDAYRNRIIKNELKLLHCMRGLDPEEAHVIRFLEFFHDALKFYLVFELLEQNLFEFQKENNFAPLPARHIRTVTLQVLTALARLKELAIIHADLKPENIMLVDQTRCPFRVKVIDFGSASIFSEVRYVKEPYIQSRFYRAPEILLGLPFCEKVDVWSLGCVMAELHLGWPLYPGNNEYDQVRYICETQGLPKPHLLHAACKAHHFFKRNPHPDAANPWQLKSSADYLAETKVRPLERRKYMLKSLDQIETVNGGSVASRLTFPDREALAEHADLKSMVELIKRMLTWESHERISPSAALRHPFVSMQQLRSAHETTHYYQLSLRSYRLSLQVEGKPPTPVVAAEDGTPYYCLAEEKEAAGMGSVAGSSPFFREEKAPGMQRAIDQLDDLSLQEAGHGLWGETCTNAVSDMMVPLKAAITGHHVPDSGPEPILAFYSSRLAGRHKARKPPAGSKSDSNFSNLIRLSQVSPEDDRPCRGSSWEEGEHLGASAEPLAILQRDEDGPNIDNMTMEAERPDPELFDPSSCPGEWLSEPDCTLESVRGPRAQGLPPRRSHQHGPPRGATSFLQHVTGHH

[11] = target: Serine/threonine-protein kinase 36 (Homo sapiens) (UniProt Q9NRP7); experiment: Inhibition of wild-type human partial length STK36 (M1 to T271 residues) expressed in bacterial expression system assessed as residual activity at 1 uM by Kinomescan method relative to control
[12] = target: Tyrosine-protein kinase BTK (Homo sapiens, UniProt Q06187); experiment: Inhibition of full length recombinant human N-terminal His tagged […] expressed in baculovirus infected Sf9 insect cells using poly (Glu,Tyr)4:1 as substrate pretreated for 60 mins followed by substrate addition after 1 hr by ADP-Glo luminescence assay
Tyrosine-protein kinase BTK, sequence (Q06187 whole entry, the tested form may be a part): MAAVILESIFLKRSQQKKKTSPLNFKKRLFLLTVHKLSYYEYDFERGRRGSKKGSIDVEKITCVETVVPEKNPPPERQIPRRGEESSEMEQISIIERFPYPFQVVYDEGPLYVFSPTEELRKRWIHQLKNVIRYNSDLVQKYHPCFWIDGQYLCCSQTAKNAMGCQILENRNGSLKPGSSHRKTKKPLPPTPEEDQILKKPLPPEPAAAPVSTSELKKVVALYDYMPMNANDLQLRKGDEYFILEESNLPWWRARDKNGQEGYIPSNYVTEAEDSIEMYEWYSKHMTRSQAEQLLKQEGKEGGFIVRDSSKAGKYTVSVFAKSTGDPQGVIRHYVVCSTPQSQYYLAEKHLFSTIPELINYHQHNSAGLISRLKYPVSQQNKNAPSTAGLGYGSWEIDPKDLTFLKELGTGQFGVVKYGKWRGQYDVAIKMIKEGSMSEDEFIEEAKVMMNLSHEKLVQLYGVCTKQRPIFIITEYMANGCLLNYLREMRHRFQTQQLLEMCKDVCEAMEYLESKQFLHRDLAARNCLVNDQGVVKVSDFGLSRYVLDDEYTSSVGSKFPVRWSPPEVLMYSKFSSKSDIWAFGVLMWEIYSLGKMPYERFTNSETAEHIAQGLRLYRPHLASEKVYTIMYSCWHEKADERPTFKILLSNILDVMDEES

[13] = target: Serine/threonine-protein kinase ULK2 (Homo sapiens) (UniProt Q8IYT8); experiment: Inhibition of wild-type human partial length ULK2 (M1 to S301 residues) expressed in mammalian expression system assessed as residual activity at 1 uM by Kinomescan method relative to control
[14] = target: Mitogen-activated protein kinase kinase kinase kinase 5 (Homo sapiens) (UniProt Q9Y4K4); experiment: Inhibition of wild-type human partial length MAP4K5 (M1 to P297 residues) expressed in bacterial expression system assessed as residual activity at 1 uM by Kinomescan method relative to control
Mitogen-activated protein kinase kinase kinase kinase 5 (Homo sapiens), sequence (Q9Y4K4 whole entry, looked up, the tested form may be a part): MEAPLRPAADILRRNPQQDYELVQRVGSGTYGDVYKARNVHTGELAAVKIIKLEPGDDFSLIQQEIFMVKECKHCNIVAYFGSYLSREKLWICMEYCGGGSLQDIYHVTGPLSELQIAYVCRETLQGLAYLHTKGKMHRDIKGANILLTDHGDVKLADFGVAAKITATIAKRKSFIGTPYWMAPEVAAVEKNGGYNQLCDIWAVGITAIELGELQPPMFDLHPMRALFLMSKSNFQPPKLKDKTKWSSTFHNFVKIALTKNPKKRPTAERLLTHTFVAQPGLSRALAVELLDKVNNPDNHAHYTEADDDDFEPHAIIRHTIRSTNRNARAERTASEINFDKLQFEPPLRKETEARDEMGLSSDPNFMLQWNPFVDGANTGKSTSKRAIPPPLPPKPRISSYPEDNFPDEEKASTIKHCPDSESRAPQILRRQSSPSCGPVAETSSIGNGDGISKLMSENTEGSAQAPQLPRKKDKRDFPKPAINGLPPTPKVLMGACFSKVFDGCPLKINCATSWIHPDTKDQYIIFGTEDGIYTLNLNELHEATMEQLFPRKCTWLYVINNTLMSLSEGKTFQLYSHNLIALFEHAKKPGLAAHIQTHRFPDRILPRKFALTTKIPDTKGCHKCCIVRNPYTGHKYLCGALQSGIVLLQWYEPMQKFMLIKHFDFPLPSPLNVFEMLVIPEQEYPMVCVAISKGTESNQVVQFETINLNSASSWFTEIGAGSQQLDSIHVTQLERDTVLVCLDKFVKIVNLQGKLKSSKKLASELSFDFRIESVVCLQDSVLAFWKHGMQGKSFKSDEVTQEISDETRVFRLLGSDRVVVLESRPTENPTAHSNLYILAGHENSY

[15] = target: Serine/threonine-protein kinase TNNI3K (Homo sapiens) (UniProt Q59H18); experiment: Inhibition of wild-type human full length TNNI3K (M1 to S835 residues) expressed in bacterial expression system assessed as residual activity at 1 uM by Kinomescan method relative to control
[16] = target: Serine/threonine-protein kinase PRP4 homolog (Homo sapiens) (UniProt Q13523); experiment: Inhibition of wild-type human partial length PRP4 (D657 to I1007 residues) expressed in bacterial expression system assessed as residual activity at 1 uM by Kinomescan method relative to control
[17] = tested on: Proto-oncogene tyrosine-protein kinase receptor Ret (Homo sapiens), P07949 [V804L]; experiment: Inhibition of human partial length RET V804L mutant (E713 to D1014 residues) expressed in bacterial expression system assessed as residual activity at 1 uM by Kinomescan method relative to control
[18] = target: Phosphorylase b kinase gamma catalytic chain, skeletal muscle/heart isoform (Homo sapiens) (UniProt Q16816); experiment: Inhibition of wild-type human full length PHKG1 (M1 to Y387 residues) expressed in bacterial expression system assessed as residual activity at 1 uM by Kinomescan method relative to control
[19] = target: Mitogen-activated protein kinase 15 (Homo sapiens) (UniProt Q8TD08); experiment: Inhibition of wild-type human partial length ERK8 (M1 to P437 residues) expressed in bacterial expression system assessed as residual activity at 1 uM by Kinomescan method relative to control
Mitogen-activated protein kinase 15 (Homo sapiens), sequence (Q8TD08 whole entry, the tested form may be a part): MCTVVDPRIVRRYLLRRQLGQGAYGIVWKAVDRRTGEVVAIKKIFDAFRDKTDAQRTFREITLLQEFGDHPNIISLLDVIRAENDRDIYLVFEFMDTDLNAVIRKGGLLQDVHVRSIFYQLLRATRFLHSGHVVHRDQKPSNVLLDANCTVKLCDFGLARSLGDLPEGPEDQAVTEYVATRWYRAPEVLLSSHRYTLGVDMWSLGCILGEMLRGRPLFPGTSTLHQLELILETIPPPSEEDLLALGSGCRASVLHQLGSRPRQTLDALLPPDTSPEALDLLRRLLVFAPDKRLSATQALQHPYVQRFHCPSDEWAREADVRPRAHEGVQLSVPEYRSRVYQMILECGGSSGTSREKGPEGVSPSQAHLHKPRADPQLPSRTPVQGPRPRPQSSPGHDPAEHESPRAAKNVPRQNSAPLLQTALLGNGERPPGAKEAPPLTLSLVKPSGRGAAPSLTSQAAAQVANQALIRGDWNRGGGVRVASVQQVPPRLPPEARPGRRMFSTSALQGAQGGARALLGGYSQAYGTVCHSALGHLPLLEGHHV

[20] = target: Tyrosine-protein kinase Yes (Homo sapiens) (UniProt P07947); experiment: Inhibition of wild-type human partial length YES (T257 to L543 residues) expressed in bacterial expression system assessed as residual activity at 1 uM by Kinomescan method relative to control
Tyrosine-protein kinase Yes (Homo sapiens), sequence (P07947 2-543 limits assumed): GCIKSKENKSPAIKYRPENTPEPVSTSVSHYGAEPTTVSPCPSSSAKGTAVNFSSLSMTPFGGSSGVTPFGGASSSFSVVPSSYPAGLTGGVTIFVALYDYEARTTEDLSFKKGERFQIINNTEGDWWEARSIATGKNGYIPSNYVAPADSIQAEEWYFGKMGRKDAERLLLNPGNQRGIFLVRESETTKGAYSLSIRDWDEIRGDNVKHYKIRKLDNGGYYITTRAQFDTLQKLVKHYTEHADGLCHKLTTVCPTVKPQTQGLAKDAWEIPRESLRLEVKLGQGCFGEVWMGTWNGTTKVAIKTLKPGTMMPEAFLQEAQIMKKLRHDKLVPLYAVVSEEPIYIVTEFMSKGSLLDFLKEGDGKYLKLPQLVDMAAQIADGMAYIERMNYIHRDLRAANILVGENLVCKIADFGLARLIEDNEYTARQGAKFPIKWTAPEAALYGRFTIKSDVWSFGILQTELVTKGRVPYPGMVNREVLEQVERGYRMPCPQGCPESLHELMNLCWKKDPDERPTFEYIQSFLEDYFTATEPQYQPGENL

Ramos = experiment: Growth inhibition of human Ramos cells; format: functional; settings: Homo sapiens, Ramos
[21] = target: cGMP-dependent protein kinase 1 (Homo sapiens) (UniProt Q13976); experiment: Inhibition of wild-type human partial length PRKG1 (L339 to F686 residues) expressed in bacterial expression system assessed as residual activity at 1 uM by Kinomescan method relative to control
[22] = target: Serine/threonine-protein kinase PAK 3 (Homo sapiens) (UniProt O75914); experiment: Inhibition of wild-type human full length PAK3 (M1 to R544 residues) expressed in bacterial expression system assessed as residual activity at 1 uM by Kinomescan method relative to control
Serine/threonine-protein kinase PAK 3 (Homo sapiens), sequence (O75914 whole entry, looked up, the tested form may be a part): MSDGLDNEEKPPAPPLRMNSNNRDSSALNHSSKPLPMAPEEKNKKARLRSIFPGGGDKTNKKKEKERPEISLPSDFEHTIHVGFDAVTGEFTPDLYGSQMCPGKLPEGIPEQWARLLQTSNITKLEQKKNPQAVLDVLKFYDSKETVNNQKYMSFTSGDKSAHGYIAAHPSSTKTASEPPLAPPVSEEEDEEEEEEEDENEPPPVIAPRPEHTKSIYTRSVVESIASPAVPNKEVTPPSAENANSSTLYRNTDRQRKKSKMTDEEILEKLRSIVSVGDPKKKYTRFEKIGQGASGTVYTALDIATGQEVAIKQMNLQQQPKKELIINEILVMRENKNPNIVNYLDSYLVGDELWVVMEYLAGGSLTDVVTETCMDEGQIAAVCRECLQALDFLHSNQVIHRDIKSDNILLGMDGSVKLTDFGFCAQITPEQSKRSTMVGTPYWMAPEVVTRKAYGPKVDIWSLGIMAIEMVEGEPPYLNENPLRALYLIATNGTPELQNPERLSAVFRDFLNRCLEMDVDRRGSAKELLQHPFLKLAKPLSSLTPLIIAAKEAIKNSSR

[23] = target: Testis-specific serine/threonine-protein kinase 1 (Homo sapiens) (UniProt Q9BXA7); experiment: Inhibition of wild-type human full length TSSK1B (M1 to Q367 residues) expressed in bacterial expression system assessed as residual activity at 1 uM by Kinomescan method relative to control
[24] = target: Serine/threonine-protein kinase D1 (Homo sapiens) (UniProt Q15139); experiment: Inhibition of wild-type human partial length PRKD1 (G551 to E870 residues) expressed in bacterial expression system assessed as residual activity at 1 uM by Kinomescan method relative to control

**Q.** How did the Activity [1] turn out when `C=CC(=O)Nc1cc(Nc2cc(-c3cccc(NC(=O)c4ccc(C(C)(C)C)cc4)c3C)cn(C)c2=O)ccc1C(=O)N1CCOCC1` was run?
**A.** 98%

**Q.** What about the Activity [2] of the same compound?
**A.** 100%

**Q.** And the Activity [3]?
**A.** 89%

**Q.** And the Activity [4]?
**A.** 93%

**Q.** What about the Activity [5] of the same compound?
**A.** 100%

**Q.** What about the GI50 (SKM-1) of the same compound?
**A.** 7.1 µM

**Q.** And the Activity [6]?
**A.** 92%

**Q.** What about the Activity [7] of the same compound?
**A.** 94%

**Q.** What about the Activity [8] of the same compound?
**A.** 100%

**Q.** What about the Activity [9] of the same compound?
**A.** 100%

**Q.** What about the Activity [10] of the same compound?
**A.** 79%

**Q.** And the Activity [11]?
**A.** 93%

**Q.** And the IC50 [12]?
**A.** 0.007 µM

**Q.** And the Activity [13]?
**A.** 80%

**Q.** And the Activity [14]?
**A.** 100%

**Q.** And the Activity [15]?
**A.** 37%

**Q.** What about the Activity [16] of the same compound?
**A.** 100%

**Q.** And the Activity [17]?
**A.** 100%

**Q.** And the Activity [18]?
**A.** 100%

**Q.** And the Activity [19]?
**A.** 100%

**Q.** And the Activity [20]?
**A.** 93%

**Q.** What about the GI50 (Ramos) of the same compound?
**A.** 3.5 µM

**Q.** And the Activity [21]?
**A.** 95%

**Q.** And the Activity [22]?
**A.** 71%

**Q.** And the Activity [23]?
**A.** 98%

**Q.** What about the Activity [24] of the same compound?
**A.** 100%
